Test results reported in US20220389061A1, “IMMUNOMODULATORS” (priority 2019, published 2022).
Starred links: 1 amine or outer side, 2 acyl side, 3 side chain; linkers in the order of their positions; H or OH if unused. Positions of bridges follow the written chain, without caps; N, C: chain ends. Non-standard residues stand in square brackets, D forms with d. Residues, ends and D or L forms follow the SMILES beside them. Groups on a side chain read outwards from the residue. *: point of attachment. Trp(1-CH2CO2Me) = COC(=O)Cn1cc(C[C@H](N)C(=O)O)c2ccccc21; Trp(1-CH2COOH) = N[C@@H](Cc1cn(CC(=O)O)c2ccccc12)C(=O)O; Benzoyl(2-(4-MeOPh)) = COc1ccc(-c2ccccc2C(=O)*)cc1; NH(3,5-Cl2-phenyl) = Clc1cc(Cl)cc(N*)c1; Benzofuran(2-CO) = O=C(c1cc2ccccc2o1)*; X75 = S=C(Nc1ccc(C2CC2)c2ccccc12)*; Hyp = O=C(O)[C@@H]1C[C@@H](O)CN1; X35 = Cc1n[nH]c2c(NC(=S)*)cccc12; X30 = FC(F)(F)c1ccc(N*)c(Cl)c1; X91 = Cc1cc(NC(=S)*)c2ccccc2n1; pNA = O=[N+]([O-])c1ccc(N*)cc1; X36 = c1ccc(Oc2cccc(N*)c2)cc1; NMeNle = CCCC[C@H](NC)C(=O)O; X16 = S=C(Nc1ccc2c(c1)OCO2)*; X7 = S=C(Nc1ccc2cc[nH]c2c1)*; X74 = Cc1cc(C)c(N*)c(C)c1; 3Abz = Nc1cccc(C(=O)O)c1; NMeA = CN[C@@H](C)C(=O)O; Dab = NCC[C@H](N)C(=O)O; Dap = NC[C@H](N)C(=O)O; CO = O=C([*:1])[*:2]

Molecular target: T1, PD-1/PD-L1 (Homo sapiens, UniProt Q9NZQ7)
T1 construct: TVMV protease site linker (C); made in house; host or cells: HEK293T cells
Experiment: PD-1/PD-L1 Homogenous Time-Resolved Fluorescence (HTRF) binding assay
Details: not given
Method in brief: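 HTRF read-out using europium cryptate anti-Ig (1 nM) and APC anti-His (20 nM) on extracellular-domain fusion proteins in dPBS/0.1% BSA/0.05% Tween-20. Inhibitor first incubated 15 min with 10 nM PD-L1-His, followed by 20 nM PD-1-Ig for another 15 min.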

T1 sequence (Q9NZQ7 18-239): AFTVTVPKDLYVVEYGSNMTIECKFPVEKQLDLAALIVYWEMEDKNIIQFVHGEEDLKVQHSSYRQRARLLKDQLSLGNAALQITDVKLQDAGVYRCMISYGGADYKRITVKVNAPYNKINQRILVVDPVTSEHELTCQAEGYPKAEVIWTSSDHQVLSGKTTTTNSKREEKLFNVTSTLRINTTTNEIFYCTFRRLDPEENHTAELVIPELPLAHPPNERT

| Structure (SMILES) | IC50 |
| --- | --- |
| CCCC[C@H]1C(=O)N(C)[C@@H](CCCC)C(=O)N[C@@H](CC(C)C)C(=O)N[C@H](C(=O)NCC(N)=O)CSCC(=O)N[C@@H](Cc2ccc(O)cc2)C(=O)N(C)[C@@H](C)C(=O)N[C@@H](CC(N)=O)C(=O)N2CCC[C@H]2C(=O)N[C@@H](CNC(=O)Nc2cc(Cl)cc(Cl)c2)C(=O)N[C@@H](CC(C)C)C(=O)N2C[C@H](O)C[C@H]2C(=O)N[C@@H](Cc2c[nH]c3ccccc23)C(=O)N[C@@H](CCN)C(=O)N[C@@H](Cc2cn(CC(=O)O)c3ccccc23)C(=O)N1C [Example 1068] ({CH2CO}-Y[NMeA]NP[Dap]([CO-NH(3,5-Cl2-phenyl)])L[Hyp]W[Dab][Trp(1-CH2COOH)][NMeNle][NMeNle]LCG-NH2; thioether N-14) | 4.3 nM |
| CCCC[C@H]1C(=O)N(C)[C@@H](CCCC)C(=O)N[C@@H](CC(C)C)C(=O)N[C@H](C(=O)NCC(N)=O)CSCC(=O)N[C@@H](Cc2ccc(O)cc2)C(=O)N(C)[C@@H](C)C(=O)N[C@@H](CC(N)=O)C(=O)N2CCC[C@H]2C(=O)N[C@@H](CNC(=O)Nc2ccc([N+](=O)[O-])cc2)C(=O)N[C@@H](CC(C)C)C(=O)N2C[C@H](O)C[C@H]2C(=O)N[C@@H](Cc2c[nH]c3ccccc23)C(=O)N[C@@H](CCNC(=O)Nc2ccc([N+](=O)[O-])cc2)C(=O)N[C@@H](Cc2cn(CC(=O)O)c3ccccc23)C(=O)N1C [Example 1130] ({CH2CO}-Y[NMeA]NP[Dap]([CO-pNA])L[Hyp]W[Dab]([CO-pNA])[Trp(1-CH2COOH)][NMeNle][NMeNle]LCG-NH2; thioether N-14) | 2 nM |

Same assay, conditions: PD-L1-His 10 nM pre-incubated with inhibitor, PD-1-Ig 20 nM; read-out: HTRF IC50

| Structure (SMILES) | IC50 |
| --- | --- |
| CCCC[C@H]1C(=O)N(C)[C@@H](CCCC)C(=O)N[C@@H](CC(C)C)C(=O)N[C@H](C(=O)NCC(N)=O)CSCC(=O)N[C@@H](Cc2ccc(O)cc2)C(=O)N(C)[C@@H](C)C(=O)N[C@@H](CC(N)=O)C(=O)N2CCC[C@H]2C(=O)N[C@@H](CNC(=O)c2cc3ccccc3o2)C(=O)N[C@@H](CC(C)C)C(=O)N2C[C@H](O)C[C@H]2C(=O)N[C@@H](Cc2c[nH]c3ccccc23)C(=O)N[C@@H](CCNC(=O)c2cc3ccccc3o2)C(=O)N[C@@H](Cc2cn(CC(=O)O)c3ccccc23)C(=O)N1C [Example 3036] ({CH2CO}-Y[NMeA]NP[Dap](Benzofuran(2-CO))L[Hyp]W[Dab](Benzofuran(2-CO))[Trp(1-CH2COOH)][NMeNle][NMeNle]LCG-NH2; thioether N-14) | 2.7 nM |
| CCCC[C@H]1C(=O)N(C)[C@@H](CCCC)C(=O)N[C@@H](CC(C)C)C(=O)N[C@H](C(=O)NCC(N)=O)CSCC(=O)N[C@@H](Cc2ccc(O)cc2)C(=O)N(C)[C@@H](C)C(=O)N[C@@H](CC(N)=O)C(=O)N2CCC[C@H]2C(=O)N[C@@H](CNC(=S)Nc2cccc3c(C)n[nH]c23)C(=O)N[C@@H](CC(C)C)C(=O)N2C[C@H](O)C[C@H]2C(=O)N[C@@H](Cc2c[nH]c3ccccc23)C(=O)N[C@@H](CCNC(=S)Nc2cccc3c(C)n[nH]c23)C(=O)N[C@@H](Cc2cn(CC(=O)O)c3ccccc23)C(=O)N1C [Example 3052] ({CH2CO}-Y[NMeA]NP[Dap](X35)L[Hyp]W[Dab](X35)[Trp(1-CH2COOH)][NMeNle][NMeNle]LCG-NH2; thioether N-14) | 3.9 nM |
| CCCC[C@H]1C(=O)N(C)[C@@H](CCCC)C(=O)N[C@@H](CC(C)C)C(=O)N[C@H](C(=O)NCC(N)=O)CSCC(=O)N[C@@H](Cc2ccc(O)cc2)C(=O)N(C)[C@@H](C)C(=O)N[C@@H](CC(N)=O)C(=O)N2CCC[C@H]2C(=O)N[C@@H](CNC(=O)Nc2ccc(C(F)(F)F)cc2Cl)C(=O)N[C@@H](CC(C)C)C(=O)N2C[C@H](O)C[C@H]2C(=O)N[C@@H](Cc2c[nH]c3ccccc23)C(=O)N[C@@H](CCNC(=O)Nc2ccc(C(F)(F)F)cc2Cl)C(=O)N[C@@H](Cc2cn(CC(=O)O)c3ccccc23)C(=O)N1C [Example 1116] ({CH2CO}-Y[NMeA]NP[Dap]([CO-X30])L[Hyp]W[Dab]([CO-X30])[Trp(1-CH2COOH)][NMeNle][NMeNle]LCG-NH2; thioether N-14) | 18 nM |
| CCCC[C@H]1C(=O)N(C)[C@@H](CCCC)C(=O)N[C@@H](CC(C)C)C(=O)N[C@H](C(=O)NCC(N)=O)CSCC(=O)N[C@@H](Cc2ccc(OC)cc2)C(=O)N(C)[C@@H](C)C(=O)N[C@@H](CC(N)=O)C(=O)N2CCC[C@H]2C(=O)N[C@@H](CNC(=O)c2ccccc2-c2ccc(OC)cc2)C(=O)N[C@@H](CC(C)C)C(=O)N2C[C@H](O)C[C@H]2C(=O)N[C@@H](Cc2c[nH]c3ccccc23)C(=O)N[C@@H](CCNC(=O)c2ccccc2-c2ccc(OC)cc2)C(=O)N[C@@H](Cc2cn(CC(=O)OC)c3ccccc23)C(=O)N1C [Example 1075] ({CH2CO}-Y(Me)[NMeA]NP[Dap](Benzoyl(2-(4-MeOPh)))L[Hyp]W[Dab](Benzoyl(2-(4-MeOPh)))[Trp(1-CH2CO2Me)][NMeNle][NMeNle]LCG-NH2; thioether N-14) | 91 nM |
| CCCC[C@H]1C(=O)N(C)[C@@H](CCCC)C(=O)N[C@@H](CC(C)C)C(=O)N[C@H](C(=O)NCC(N)=O)CSCC(=O)N[C@@H](Cc2ccc(O)cc2)C(=O)N(C)[C@@H](C)C(=O)N[C@@H](CC(N)=O)C(=O)N2CCC[C@H]2C(=O)N[C@@H](CNC(=S)Nc2ccc(C3CC3)c3ccccc23)C(=O)N[C@@H](CC(C)C)C(=O)N2C[C@H](O)C[C@H]2C(=O)N[C@@H](Cc2c[nH]c3ccccc23)C(=O)N[C@@H](CCN)C(=O)N[C@@H](Cc2cn(CC(=O)O)c3ccccc23)C(=O)N1C [Example 3044] ({CH2CO}-Y[NMeA]NP[Dap](X75)L[Hyp]W[Dab][Trp(1-CH2COOH)][NMeNle][NMeNle]LCG-NH2; thioether N-14) | 3 nM |
| CCCC[C@H]1C(=O)N(C)[C@@H](CCCC)C(=O)N[C@@H](CC(C)C)C(=O)N[C@H](C(=O)NCC(N)=O)CSCC(=O)N[C@@H](Cc2ccc(O)cc2)C(=O)N(C)[C@@H](C)C(=O)N[C@@H](CC(N)=O)C(=O)N2CCC[C@H]2C(=O)N[C@@H](CNC(=O)Nc2cccc(Oc3ccccc3)c2)C(=O)N[C@@H](CC(C)C)C(=O)N2C[C@H](O)C[C@H]2C(=O)N[C@@H](Cc2c[nH]c3ccccc23)C(=O)N[C@@H](CCNC(=O)Nc2cccc(Oc3ccccc3)c2)C(=O)N[C@@H](Cc2cn(CC(=O)O)c3ccccc23)C(=O)N1C [Example 1020] ({CH2CO}-Y[NMeA]NP[Dap]([CO-X36])L[Hyp]W[Dab]([CO-X36])[Trp(1-CH2COOH)][NMeNle][NMeNle]LCG-NH2; thioether N-14) | 24 nM |
| CCCC[C@H]1C(=O)N(C)[C@@H](CCCC)C(=O)N[C@@H](CC(C)C)C(=O)N[C@H](C(=O)NCC(N)=O)CSCC(=O)N[C@@H](Cc2ccc(O)cc2)C(=O)N(C)[C@@H](C)C(=O)N[C@@H](CC(N)=O)C(=O)N2CCC[C@H]2C(=O)N[C@@H](CNC(=O)Nc2c(C)cc(C)cc2C)C(=O)N[C@@H](CC(C)C)C(=O)N2C[C@H](O)C[C@H]2C(=O)N[C@@H](Cc2c[nH]c3ccccc23)C(=O)N[C@@H](CCNC(=O)Nc2c(C)cc(C)cc2C)C(=O)N[C@@H](Cc2cn(CC(=O)O)c3ccccc23)C(=O)N1C [Example 1081] ({CH2CO}-Y[NMeA]NP[Dap]([CO-X74])L[Hyp]W[Dab]([CO-X74])[Trp(1-CH2COOH)][NMeNle][NMeNle]LCG-NH2; thioether N-14) | 2.7 nM |
| CCCC[C@H]1C(=O)N(C)[C@@H](CCCC)C(=O)N[C@@H](CC(C)C)C(=O)N[C@H](C(=O)NCC(N)=O)CSCC(=O)N[C@@H](Cc2ccc(O)cc2)C(=O)N(C)[C@@H](C)C(=O)N[C@@H](CC(N)=O)C(=O)N2CCC[C@H]2C(=O)N[C@@H](CNC(=O)Nc2cccc(C(=O)OCC)c2)C(=O)N[C@@H](CC(C)C)C(=O)N2C[C@H](O)C[C@H]2C(=O)N[C@@H](Cc2c[nH]c3ccccc23)C(=O)N[C@@H](CCN)C(=O)N[C@@H](Cc2cn(CC(=O)O)c3ccccc23)C(=O)N1C [Example 1078] ({CH2CO}-Y[NMeA]NP[Dap]([CO-3Abz-OEt])L[Hyp]W[Dab][Trp(1-CH2COOH)][NMeNle][NMeNle]LCG-NH2; thioether N-14) | 4.1 nM |
| CCCC[C@H]1C(=O)N(C)[C@@H](CCCC)C(=O)N[C@@H](CC(C)C)C(=O)N[C@H](C(=O)NCC(N)=O)CSCC(=O)N[C@@H](Cc2ccc(O)cc2)C(=O)N(C)[C@@H](C)C(=O)N[C@@H](CC(N)=O)C(=O)N2CCC[C@H]2C(=O)N[C@@H](CNC(=S)Nc2cc(C)nc3ccccc23)C(=O)N[C@@H](CC(C)C)C(=O)N2C[C@H](O)C[C@H]2C(=O)N[C@@H](Cc2c[nH]c3ccccc23)C(=O)N[C@@H](CCN)C(=O)N[C@@H](Cc2cn(CC(=O)O)c3ccccc23)C(=O)N1C [Example 3053] ({CH2CO}-Y[NMeA]NP[Dap](X91)L[Hyp]W[Dab][Trp(1-CH2COOH)][NMeNle][NMeNle]LCG-NH2; thioether N-14) | 3.4 nM |
| CCCC[C@H]1C(=O)N(C)[C@@H](CCCC)C(=O)N[C@@H](CC(C)C)C(=O)N[C@H](C(=O)NCC(N)=O)CSCC(=O)N[C@@H](Cc2ccc(O)cc2)C(=O)N(C)[C@@H](C)C(=O)N[C@@H](CC(N)=O)C(=O)N2CCC[C@H]2C(=O)N[C@@H](CNC(=S)Nc2ccc3c(c2)OCO3)C(=O)N[C@@H](CC(C)C)C(=O)N2C[C@H](O)C[C@H]2C(=O)N[C@@H](Cc2c[nH]c3ccccc23)C(=O)N[C@@H](CCNC(=S)Nc2ccc3c(c2)OCO3)C(=O)N[C@@H](Cc2cn(CC(=O)O)c3ccccc23)C(=O)N1C [Example 3050] ({CH2CO}-Y[NMeA]NP[Dap](X16)L[Hyp]W[Dab](X16)[Trp(1-CH2COOH)][NMeNle][NMeNle]LCG-NH2; thioether N-14) | 2.7 nM |
| CCCC[C@H]1C(=O)N(C)[C@@H](CCCC)C(=O)N[C@@H](CC(C)C)C(=O)N[C@H](C(=O)NCC(N)=O)CSCC(=O)N[C@@H](Cc2ccc(O)cc2)C(=O)N(C)[C@@H](C)C(=O)N[C@@H](CC(N)=O)C(=O)N2CCC[C@H]2C(=O)N[C@@H](CNC(=S)Nc2ccc3cc[nH]c3c2)C(=O)N[C@@H](CC(C)C)C(=O)N2C[C@H](O)C[C@H]2C(=O)N[C@@H](Cc2c[nH]c3ccccc23)C(=O)N[C@@H](CCNC(=S)Nc2ccc3cc[nH]c3c2)C(=O)N[C@@H](Cc2cn(CC(=O)O)c3ccccc23)C(=O)N1C [Example 3068] ({CH2CO}-Y[NMeA]NP[Dap](X7)L[Hyp]W[Dab](X7)[Trp(1-CH2COOH)][NMeNle][NMeNle]LCG-NH2; thioether N-14) | 2 nM |
